The values that follow come from ChEMBL document CHEMBL5505969, “Discovery of new piperaquine hybrid analogs linked by triazolopyrimidine and pyrazolopyrimidine scaffolds with antiplasmodial and transmission blocking activities” (Eur J Med Chem, 2024).

Series [1] relates to Plasmodium falciparum. The series is described as follows: Antiplasmodial activity against Plasmodium falciparum 3D7. Format: functional, organism-based.
Series [2] has as its system Plasmodium falciparum. The series is described as follows: Antiplasmodial activity against sorbitol-synchronized ring stage chloroquine sensitive Plasmodium falciparum 3D7 infected in erythrocytes measured after 48 hrs by SYBR green dye based fluorescence analysis. Format: functional, organism-based. The note with it: 3D7, Erythrocyte.
For series [3], the system named is Plasmodium falciparum. The series is described as follows: Antiplasmodial activity against sorbitol-synchronized ring stage chloroquine resistant Plasmodium falciparum K1 infected in erythrocytes measured after 48 hrs by SYBR green dye based fluorescence analysis. The note with it: K1, Erythrocyte. Format: functional, organism-based.
Series [4] in a line: Cytotoxicity against human HepG2 cells assessed as reduction in cell viability incubated for 72 hrs by MTT assay. Format: toxicity, cell-based. (Formazan colour is commonly taken as a measure of viable cells.)
Series [5] is described as follows: Selectivity index, ratio of CC50 for human HepG2 cells to IC50 for antiplasmodial activity against sorbitol-synchronized ring stage chloroquine sensitive Plasmodium falciparum 3D7 infected in erythrocytes. The format is toxicity, cell-based. The following applies: Plasmodium falciparum 3D7 in erythrocytes, read-out: Ratio CC50/IC50.
The subject of series [6] is Plasmodium falciparum. The experiment in a line: Resistance index, ratio of IC50 for antiplasmodial activity against sorbitol-synchronized ring stage chloroquine resistant Plasmodium falciparum K1 infected in erythrocytes to IC50 for antiplasmodial activity against sorbitol-synchronized ring stage chloroquine sensitive Plasmodium falciparum 3D7 infected in erythrocytes. Format: functional.

Series [7] concerns Plasmodium falciparum. The series is described as follows: Potency index, ratio of chloroquine IC50 to test compound IC50 for antiplasmodial activity against sorbitol-synchronized ring stage chloroquine resistant Plasmodium falciparum K1 infected in erythrocytes measured after 48 hrs by SYBR green dye based fluorescence analysis. Format: functional, Erythrocyte.
For series [8], the system named is Plasmodium falciparum. The series is described as follows: Antiplasmodial activity against sorbitol-synchronized ring stage chloroquine, mefloquine and pyrimethamine resistant Plasmodium falciparum Dd2 harboring N86F/M74I/ N75E/[…] mutation in MDR1 gene, N51I/C59R/S108N mutation in DHFR gene and S436F/A437G/A613S mutation in DHPS gene infected in erythrocytes measured after 48 hrs by SYBR green dye based fluorescence analysis. Format: functional, organism-based. The note with it: Dd2, Erythrocyte.

Series [9] concerns Plasmodium falciparum. The experiment in a line: Resistance index, ratio of IC50 for antiplasmodial activity against sorbitol-synchronized ring stage chloroquine, mefloquine and pyrimethamine resistant Plasmodium falciparum Dd2 harboring N86F/M74I/ N75E/[…] mutation in MDR1 gene, N51I/C59R/S108N mutation in DHFR gene and S436F/A437G/A613S mutation in DHPS gene infected in erythrocytes to IC50 for antiplasmodial activity against sorbitol-synchronized ring stage chloroquine sensitive Plasmodium falciparum 3D7 infected in erythrocytes. Format: functional.

The subject of series [10] is Plasmodium falciparum. The series is described as follows: Antiplasmodial activity against sorbitol-synchronized ring stage atovaquone resistant Plasmodium falciparum TM90C6B harboring Y268S mutation in CYTB gene, Y184F mutation in MDR1 gene, N51I/C59R/S108N mutation in DHFR gene and S436F/A437G/A581G mutation in DHPS gene infected in erythrocytes measured after 48 hrs by SYBR green dye based fluorescence analysis. Format: functional, organism-based. The following applies: Erythrocyte.

In series [11] the test system is Plasmodium falciparum. The experiment in a line: Resistance index, ratio of IC50 for antiplasmodial activity against sorbitol-synchronized ring stage atovaquone resistant Plasmodium falciparum TM90C6B harboring Y268S mutation in CYTB gene, Y184F mutation in MDR1 gene, N51I/C59R/S108N mutation in DHFR gene and S436F/A437G/A581G mutation in DHPS gene infected in erythrocytes to IC50 for antiplasmodial activity against sorbitol-synchronized ring stage chloroquine sensitive Plasmodium falciparum 3D7 infected in erythrocytes. The format is functional.

In series [12] the test system is Plasmodium falciparum. The series is described as follows: Antiplasmodial activity against sorbitol-synchronized ring stage 2-(1,1-difluoroethyl)-5-methyl-N-(4-(pentafluoro-l6-sulfaneyl)phenyl)-[1,2,4]triazolo[1,5-a]pyrimidin-7-amine resistant Plasmodium falciparum Dd2 infected in erythrocytes measured after 48 hrs by SYBR green dye based fluorescence analysis. The note with it: Dd2, Erythrocyte. The format is functional, organism-based.

Series [13] has as its system Plasmodium falciparum. The series is described as follows: Resistance index, ratio of IC50 for antiplasmodial activity against sorbitol-synchronized ring stage 2-(1,1-difluoroethyl)-5-methyl-N-(4-(pentafluoro-l6-sulfaneyl)phenyl)-[1,2,4]triazolo[1,5-a]pyrimidin-7-amine resistant Plasmodium falciparum Dd2 infected in erythrocytes to IC50 for antiplasmodial activity against sorbitol-synchronized ring stage chloroquine sensitive Plasmodium falciparum 3D7 infected in erythrocytes. The format is functional.

For series [14], the system named is Plasmodium falciparum. The experiment in a line: Antiplasmodial activity against sorbitol-synchronized ring stage MMV848 resistant Plasmodium falciparum 3D7 infected in erythrocytes measured after 48 hrs by SYBR green dye based fluorescence analysis. The format is functional, organism-based. The note with it: 3D7, Erythrocyte.
The test system of series [15] is Plasmodium falciparum. The experiment in a line: Resistance index, ratio of IC50 for antiplasmodial activity against sorbitol-synchronized ring stage MMV848 resistant Plasmodium falciparum 3D7 infected in erythrocytes to IC50 for antiplasmodial activity against sorbitol-synchronized ring stage chloroquine sensitive Plasmodium falciparum 3D7 infected in erythrocytes. Format: functional.

The target in series [16] is T1, Dihydroorotate dehydrogenase (quinone), mitochondrial (Plasmodium falciparum (isolate 3D7)) (UniProt Q08210).
T1 sequence (whole entry): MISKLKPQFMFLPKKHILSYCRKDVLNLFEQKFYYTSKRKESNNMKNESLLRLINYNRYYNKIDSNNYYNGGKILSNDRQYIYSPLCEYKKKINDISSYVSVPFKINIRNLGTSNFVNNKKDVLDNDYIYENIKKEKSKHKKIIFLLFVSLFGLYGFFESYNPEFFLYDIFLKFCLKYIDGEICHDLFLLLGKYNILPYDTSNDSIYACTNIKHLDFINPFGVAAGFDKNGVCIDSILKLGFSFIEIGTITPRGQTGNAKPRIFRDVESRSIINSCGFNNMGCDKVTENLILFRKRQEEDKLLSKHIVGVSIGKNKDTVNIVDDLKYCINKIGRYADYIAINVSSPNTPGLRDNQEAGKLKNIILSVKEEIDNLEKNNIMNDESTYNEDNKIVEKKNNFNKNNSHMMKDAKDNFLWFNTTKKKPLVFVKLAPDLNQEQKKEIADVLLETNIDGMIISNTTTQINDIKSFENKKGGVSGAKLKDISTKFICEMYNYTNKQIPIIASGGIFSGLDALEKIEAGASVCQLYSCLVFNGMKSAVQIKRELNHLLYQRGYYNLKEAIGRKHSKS
The experiment in a line: Inhibition of Plasmodium falciparum DHODH assessed as residual activity at 100 uM measured over 60 secs by DCIP dye based colorimetric assay relative to control. The following applies: time > 60.0 sec.

In series [17] the target is T1, Dihydroorotate dehydrogenase (quinone), mitochondrial (Plasmodium falciparum (isolate 3D7)). The series is described as follows: Inhibition of Plasmodium falciparum DHODH at 100 uM measured over 60 secs by DCIP dye based colorimetric assay relative to control. The following applies: time > 60.0 sec.
Series [18] can be described thus: Ratio of IC50 for Plasmodium falciparum infected in erythrocytes measured after 24 hrs by SYBR green dye based fluorescence assay to IC50 for Plasmodium falciparum infected in erythrocytes measured after 72 hrs by SYBR green dye based fluorescence assay. The format is functional, Erythrocyte.
Series [19] deals with Plasmodium falciparum. The experiment in a line: Antiplasmodial activity against Plasmodium falciparum infected in erythrocytes assessed as reduction in parasite growth at 10 uM measured within 24 hrs. The following applies: Erythrocyte. Format: functional, organism-based.
For series [20], the system named is Plasmodium falciparum. The experiment in a line: Antiplasmodial activity against Plasmodium falciparum infected in erythrocytes assessed as induction of parasite death by measuring appearance of multiple pyknotic nuclei at 10 uM measured after 24 to 72 hrs. Format: functional, organism-based. The following applies: Erythrocyte, time 24-72 hrs.
Series [21] relates to Plasmodium falciparum. The series is described as follows: Antiplasmodial activity against GFP expressing sorbitol-synchronized ring stage laboratory adapted Plasmodium falciparum 3D7HT assessed as reduction in infectivity by measuring inhibition of gametocyte formation at 10 uM treated for 72 hrs followed by replacement with fresh media without compound for 24 hrs and measured on day 4 by giemsa staining based microscopic analysis. Format: functional.

Another series relates to Plasmodium berghei. The experiment in a line: Antiplasmodial activity against GFP-expressing Plasmodium berghei HSP70 infected in CD-1 mouse assessed as inhibition of ookinete formation at 10 uM measured after 22 hrs by giemsa staining based microscopic analysis. The format is functional. The note with it: read-out: INH.
Series [22] concerns the target T2, Dihydroorotate dehydrogenase (quinone), mitochondrial (Plasmodium falciparum (isolate 3D7), UniProt Q08210).
T2 sequence (Q08210 whole entry): T1 sequence (whole entry)
The experiment in a line: Inhibition of Plasmodium falciparum DHODH.

Series [23] has as its system Plasmodium falciparum. The experiment in a line: Potency index, ratio of chloroquine IC50 to test compound IC50 for antiplasmodial activity chloroquine-resistant against Plasmodium falciparum W2 by anti-[…] incorporation assay. The format is functional.
Series [24] addresses T2, Dihydroorotate dehydrogenase (quinone), mitochondrial. The series is described as follows: Inhibition of Plasmodium falciparum DHODH measured over 60 secs by DCIP dye based colorimetric assay.

Calls of active or inactive are those of the source. No cut-off for these calls is given here.

Broadly, the IC50 is the concentration at which inhibition is half-maximal. High values mean lower potency, low ones higher potency. Molecule `Clc1ccc2c(N3CCN(CCCN4CCN(c5ccnc6cc(Cl)ccc56)CC4)CC3)ccnc2c1` [PIPERAQUINE] showed an IC50 in the series on Plasmodium falciparum [1] of 60 nM.

As usually defined, the CC50 is the concentration that lowers cell viability or growth by half. Usually inhibition stands for the relative decrease from the control value, in per cent. As to `Cc1cc(NCCCCCCCNc2ccnc3cc(Cl)ccc23)n2nc(C)cc2n1`, the IC50 with Plasmodium falciparum [2] amounted to 46 nM; in the series with Plasmodium falciparum [3], 71 nM; with Plasmodium falciparum [8], 38 nM; in the series with Plasmodium falciparum [10] it was 40 nM; with Plasmodium falciparum [12], 50 nM; with Plasmodium falciparum [14] it was 20 nM. In addition, the CC50 at 72 h in series [4] amounted to 9.7 µM. Moreover, the selectivity ratio in series [5] turned out to be 211. For the same molecule, the “Ratio IC50” value in the series on Plasmodium falciparum [6] was 1.5; in the series on Plasmodium falciparum [7], 3; in the series with Plasmodium falciparum [9], 0.8; in the series on Plasmodium falciparum [11] it was 0.9; in the series on Plasmodium falciparum [13] it was 1; in the series on Plasmodium falciparum [15] it was 0.4. In addition, in [18], the “Ratio IC50” value is given as 0.8. Moreover, the Activity in series [16] was 89.4%. In [17], this molecule gave an inhibition of under 50%. The result in the series with Plasmodium falciparum [19] and in the series with Plasmodium falciparum [20] was Active. In the series on Plasmodium falciparum [21], the inhibition at 10 µM was 66.5%. In the series with Plasmodium berghei, the Percent inhibition of ookinete formation at 10 µM is 43%.

In turn, `Cc1cc(Nc2ccc3ccccc3c2)n2nc(C(F)(F)F)nc2n1` gave an IC50 in series [22] of 700 nM. Also, in the series with Plasmodium falciparum [23], the “Ratio IC50” value came out at 10.

Turning to `Cc1cc(NCCCCCCCNc2ccnc3cc(Cl)ccc23)n2nc(C(F)(F)F)nc2n1`, the IC50 is 400 nM in the series with Plasmodium falciparum [2], 330 nM in the series on Plasmodium falciparum [8] and 4.8 µM in series [24]. In addition, in series [4], the CC50 at 72 h turned out to be 13 µM. Besides, in series [5], the selectivity ratio was 33. Further, in the series on Plasmodium falciparum [9], the “Ratio IC50” value is reported as 0.8. Further, the Activity in [16] is 16.4%. For the same molecule, the inhibition in series [17] came to 84%. In addition, the inhibition at 10 µM with Plasmodium falciparum [21] stood at 69%. Further, the Percent inhibition of ookinete formation at 10 µM in the series on Plasmodium berghei is 20%.
